± gives the standard deviation of the averaged measurements.
What was measured:
Conditions in all cases: exposure time: 72 h
E13 [1] = patient-derived glioblastoma stem cells of classical subtype; test: surviving fraction (nuclei count normalised to DMSO); higher = more cells surviving (less toxic)
E21 [2] = patient-derived glioblastoma stem cells of mesenchymal subtype; test: as above
E28 [3] = patient-derived glioblastoma stem cells of classical subtype; test: as above
E31 [4] = patient-derived glioblastoma stem cells of proneural subtype; test: as above
E34 [5] = patient-derived glioblastoma stem cells of proneural subtype; test: as above
E57 [6] = patient-derived glioblastoma stem cells of mesenchymal subtype; test: as above
FT3469 [7] = normal neural stem cell line; test: as above
E13 [8] = test: phenotypic distance (Euclidean, principal components) from DMSO controls (arbitrary units); higher = stronger morphological change
E21 [9] = test: as above
E28 [10] = test: as above
E31 [11] = test: as above
E34 [12] = test: as above
E57 [13] = test: as above
FT3469 [14] = test: as above
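For phenotypic distance (Euclidean, principal components) from DMSO controls in this document: cell Painting imaging in 384-well plates, CellProfiler features reduced to at least 20 principal components, Euclidean distance versus same-plate DMSO vehicle wells (0.1% v/v), median over six images per well.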
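For surviving fraction (nuclei count normalised to DMSO) in this document: nuclei counted by high-content imaging of Hoechst-stained cells in laminin-coated 384-well plates, relative to 0.1% DMSO vehicle wells, with staurosporine as cell-death control.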

CC[N+](CC)(CC)CCOc1ccc(/C=C/c2ccccc2)cc1 [MG 624]
Conditions	phenotypic distance	surviving fraction
E13 [1], 4.1 nM	–	0.872
E13 [1], 12.3 nM	–	1.01
E13 [1], 37 nM	–	0.904
E13 [1], 111.1 nM	–	0.898
E13 [1], 333.3 nM	–	0.819
E13 [1], 1000 nM	–	0.958
E13 [1], 3000 nM	–	0.636
E13 [8], 4.1 nM	0.785	–
E13 [8], 12.3 nM	1.16	–
E13 [8], 37 nM	0.769	–
E13 [8], 111.1 nM	0.848	–
E13 [8], 333.3 nM	1.65	–
E13 [8], 1000 nM	2.21	–
E13 [8], 3000 nM	2.89	–
E21 [2], 4.1 nM	–	0.978
E21 [2], 12.3 nM	–	0.972
E21 [2], 37 nM	–	0.961
E21 [2], 111.1 nM	–	1.05
E21 [2], 333.3 nM	–	1.02
E21 [2], 1000 nM	–	0.929
E21 [2], 3000 nM	–	0.748
E21 [9], 4.1 nM	0.724	–
E21 [9], 12.3 nM	0.703	–
E21 [9], 37 nM	0.669	–
E21 [9], 111.1 nM	0.982	–
E21 [9], 333.3 nM	1.38	–
E21 [9], 1000 nM	1.38	–
E21 [9], 3000 nM	2.84	–
E28 [3], 4.1 nM	–	1.04
E28 [3], 12.3 nM	–	1.24
E28 [3], 37 nM	–	0.999
E28 [3], 111.1 nM	–	1.11
E28 [3], 333.3 nM	–	1.29
E28 [3], 1000 nM	–	0.97
E28 [3], 3000 nM	–	0.897
E28 [10], 4.1 nM	2.26	–
E28 [10], 12.3 nM	1.2	–
E28 [10], 37 nM	0.981	–
E28 [10], 111.1 nM	1.14	–
E28 [10], 333.3 nM	1.59	–
E28 [10], 1000 nM	0.807	–
E28 [10], 3000 nM	0.948	–
E31 [4], 4.1 nM	–	1.02
E31 [4], 12.3 nM	–	1.02
E31 [4], 37 nM	–	0.927
E31 [4], 111.1 nM	–	1.22
E31 [4], 333.3 nM	–	1.03
E31 [4], 1000 nM	–	1.11
E31 [4], 3000 nM	–	0.671
E31 [11], 4.1 nM	2.31	–
E31 [11], 12.3 nM	2.34	–
E31 [11], 37 nM	0.662	–
E31 [11], 111.1 nM	1.14	–
E31 [11], 333.3 nM	1.83	–
E31 [11], 1000 nM	2.39	–
E31 [11], 3000 nM	3.97	–
E34 [5], 4.1 nM	–	1.13
E34 [5], 12.3 nM	–	0.931
E34 [5], 37 nM	–	0.93
E34 [5], 111.1 nM	–	0.904
E34 [5], 333.3 nM	–	1.06
E34 [5], 1000 nM	–	1.1
E34 [5], 3000 nM	–	0.853
E34 [12], 4.1 nM	0.531	–
E34 [12], 12.3 nM	0.708	–
E34 [12], 37 nM	1	–
E34 [12], 111.1 nM	0.94	–
E34 [12], 333.3 nM	1.4	–
E34 [12], 1000 nM	1.76	–
E34 [12], 3000 nM	0.649	–
E57 [6], 4.1 nM	–	0.981
E57 [6], 12.3 nM	–	0.982
E57 [6], 37 nM	–	1.06
E57 [6], 111.1 nM	–	1.1
E57 [6], 333.3 nM	–	1.15
E57 [6], 1000 nM	–	0.922
E57 [6], 3000 nM	–	1.05
E57 [13], 4.1 nM	0.764	–
E57 [13], 12.3 nM	0.906	–
E57 [13], 37 nM	0.99	–
E57 [13], 111.1 nM	1.14	–
E57 [13], 333.3 nM	1.29	–
E57 [13], 1000 nM	1.55	–
E57 [13], 3000 nM	1.49	–
FT3469 [7], 4.1 nM	–	0.999
FT3469 [7], 12.3 nM	–	0.934
FT3469 [7], 37 nM	–	1.26
FT3469 [7], 111.1 nM	–	1.25
FT3469 [7], 333.3 nM	–	1.13
FT3469 [7], 1000 nM	–	1.12
FT3469 [7], 3000 nM	–	1.03
FT3469 [14], 4.1 nM	0.491	–
FT3469 [14], 12.3 nM	1.05	–
FT3469 [14], 37 nM	0.814	–
FT3469 [14], 111.1 nM	1.61	–
FT3469 [14], 333.3 nM	1.29	–
FT3469 [14], 1000 nM	1.26	–
FT3469 [14], 3000 nM	1.36	–

CC(C)(C)C1CCN(C(=O)n2ncc(C(O)(c3ccccc3)c3ccccc3)n2)CC1 [ML211]
Conditions	phenotypic distance	surviving fraction
E13 [1], 4.1 nM	–	0.909 ± 0.045
E13 [1], 12.3 nM	–	0.883 ± 0.028
E13 [1], 37 nM	–	0.918 ± 0.094
E13 [1], 111.1 nM	–	0.985 ± 0.028
E13 [1], 333.3 nM	–	0.984 ± 0.11
E13 [1], 1000 nM	–	0.975 ± 0.066
E13 [1], 3000 nM	–	0.916 ± 0.014
E13 [8], 4.1 nM	0.844 ± 0.46	–
E13 [8], 12.3 nM	0.731 ± 0.1	–
E13 [8], 37 nM	0.757 ± 0.42	–
E13 [8], 111.1 nM	0.461 ± 0.1	–
E13 [8], 333.3 nM	0.703 ± 0.23	–
E13 [8], 1000 nM	0.699 ± 0.15	–
E13 [8], 3000 nM	0.911 ± 0.42	–
E21 [2], 4.1 nM	–	0.93 ± 0.12
E21 [2], 12.3 nM	–	0.888 ± 0.034
E21 [2], 37 nM	–	0.946 ± 0.084
E21 [2], 111.1 nM	–	0.8973 ± 0.0015
E21 [2], 333.3 nM	–	0.973 ± 0.044
E21 [2], 1000 nM	–	0.9031 ± 0.0052
E21 [2], 3000 nM	–	0.889 ± 0.058
E21 [9], 4.1 nM	0.863 ± 0.43	–
E21 [9], 12.3 nM	0.923 ± 0.047	–
E21 [9], 37 nM	0.671 ± 0.095	–
E21 [9], 111.1 nM	0.652 ± 0.073	–
E21 [9], 333.3 nM	0.683 ± 0.082	–
E21 [9], 1000 nM	0.885 ± 0.11	–
E21 [9], 3000 nM	0.961 ± 0.043	–
E28 [3], 4.1 nM	–	1.09 ± 0.046
E28 [3], 12.3 nM	–	1 ± 0.026
E28 [3], 37 nM	–	1 ± 0.093
E28 [3], 111.1 nM	–	1 ± 0.021
E28 [3], 333.3 nM	–	0.987 ± 0.082
E28 [3], 1000 nM	–	0.9874 ± 0.0069
E28 [3], 3000 nM	–	0.883 ± 0.12
E28 [10], 4.1 nM	0.935 ± 0.43	–
E28 [10], 12.3 nM	0.886 ± 0.47	–
E28 [10], 37 nM	0.733 ± 0.039	–
E28 [10], 111.1 nM	0.678 ± 0.38	–
E28 [10], 333.3 nM	0.596 ± 0.17	–
E28 [10], 1000 nM	0.668 ± 0.1	–
E28 [10], 3000 nM	1.42 ± 0.16	–
E31 [4], 4.1 nM	–	0.9689 ± 0.0042
E31 [4], 12.3 nM	–	0.979 ± 0.061
E31 [4], 37 nM	–	0.993 ± 0.022
E31 [4], 111.1 nM	–	0.928 ± 0.046
E31 [4], 333.3 nM	–	1.04 ± 0.13
E31 [4], 1000 nM	–	0.973 ± 0.047
E31 [4], 3000 nM	–	0.823 ± 0.037
E31 [11], 4.1 nM	0.563 ± 0.26	–
E31 [11], 12.3 nM	0.567 ± 0.34	–
E31 [11], 37 nM	0.644 ± 0.016	–
E31 [11], 111.1 nM	0.641 ± 0.47	–
E31 [11], 333.3 nM	1.05 ± 0.096	–
E31 [11], 1000 nM	0.871 ± 0.41	–
E31 [11], 3000 nM	1.12 ± 0.029	–
E34 [5], 4.1 nM	–	0.956 ± 0.021
E34 [5], 12.3 nM	–	0.941 ± 0.11
E34 [5], 37 nM	–	0.95 ± 0.072
E34 [5], 111.1 nM	–	0.868 ± 0.04
E34 [5], 333.3 nM	–	0.976 ± 0.2
E34 [5], 1000 nM	–	0.965 ± 0.17
E34 [5], 3000 nM	–	0.8932 ± 0.0064
E34 [12], 4.1 nM	1.21 ± 0.68	–
E34 [12], 12.3 nM	0.912 ± 0.38	–
E34 [12], 37 nM	1.05 ± 0.22	–
E34 [12], 111.1 nM	0.782 ± 0.31	–
E34 [12], 333.3 nM	0.763 ± 0.082	–
E34 [12], 1000 nM	0.734 ± 0.23	–
E34 [12], 3000 nM	0.728 ± 0.27	–
E57 [6], 4.1 nM	–	0.995 ± 0.057
E57 [6], 12.3 nM	–	1 ± 0.074
E57 [6], 37 nM	–	0.9744 ± 0.0049
E57 [6], 111.1 nM	–	1.02 ± 0.036
E57 [6], 333.3 nM	–	0.964 ± 0.046
E57 [6], 1000 nM	–	0.974 ± 0.034
E57 [6], 3000 nM	–	0.894 ± 0.039
E57 [13], 4.1 nM	0.588 ± 0.28	–
E57 [13], 12.3 nM	0.447 ± 0.17	–
E57 [13], 37 nM	0.552 ± 0.13	–
E57 [13], 111.1 nM	0.483 ± 0.017	–
E57 [13], 333.3 nM	0.642 ± 0.092	–
E57 [13], 1000 nM	0.6 ± 0.04	–
E57 [13], 3000 nM	0.835 ± 0.43	–
FT3469 [7], 4.1 nM	–	0.879 ± 0.031
FT3469 [7], 12.3 nM	–	1.008 ± 0.0099
FT3469 [7], 37 nM	–	0.989 ± 0.034
FT3469 [7], 111.1 nM	–	0.934 ± 0.06
FT3469 [7], 333.3 nM	–	0.885 ± 0.032
FT3469 [7], 1000 nM	–	0.816 ± 0.046
FT3469 [7], 3000 nM	–	0.817 ± 0.058
FT3469 [14], 4.1 nM	1.1 ± 0.63	–
FT3469 [14], 12.3 nM	0.699 ± 0.37	–
FT3469 [14], 37 nM	0.637 ± 0.11	–
FT3469 [14], 111.1 nM	0.748 ± 0.2	–
FT3469 [14], 333.3 nM	0.841 ± 0.04	–
FT3469 [14], 1000 nM	1.25 ± 0.4	–
FT3469 [14], 3000 nM	1.74 ± 0.35	–

Source: the supplement of paper PMC13207355
